This experiment deals with PC-9 non-small cell lung cancer cell line. The experiment in a line: MTT viability assay, PC-9. Type of experiment: cell-based. The conditions noted are these: 72 hours. The protocol: We utilized an MTT assay to determine the potency of the compounds for inhibiting cell growth. […] We next asked whether T151742 induced inhibition of cell growth was dependent on ERO1α expression. As shown in FIG. 6C two ERO1α deleted clones in the PC-9 cell line were isolated. Using an MTT assay to determine overall cellar viability, a non-targeted control (scramble), and both ERO1α knockout clones was subjected to treatment with T151742 for 72 hours (See FIG. 6D). […] Though only slight differences were observed between T151742 and EN-460 we tested the effects of these compounds in a clonogenic assay which is a better test for inhibition of self-renewal.
Cell Lines: PC-9 cell line used was obtained from Sigma Aldrich and grown in RPMI 1640 medium with 10% fetal bovine serum and 1% penicillin/streptomycin. HCC4006, U266, MM1.s, and Beas-2B cell lines were obtained from ATCC and cultured in either RPMI 1640 or DMEM with 10% fetal bovine serum and 1% penicillin/streptomycin. All cell lines were also checked for mycoplasma every six months and subjected to short tandem repeat (STR) analysis for cell line validation. CRISPR Cas9: CRISPR Guide RNA 2 targeting ERO1α and CRISPR Guide RNA 4 were purchased from Genscript in the pLentiCRISPR V2 plasmid containing puromycin/ampicillin selection marker. Lentivirus was made from HEK 293T cells by co-transfection with GuideRNA of interest, pVSVG, and pPAX2 plasmids. Lentivirus was collected after 48 hours and concentrated using 40% PEG8000. […] Plate was then read on the BioTek Cytation 5 at 530/590 nm. […] Plate was then read at 570 nm. Treated wells were all compared to DMSO control wells to calculate percent growth inhibition and the IC50 was calculated using GraphPad (log(inhibitor) vs growth inhibition). […] Images were then quantified using ImageJ. […] Cells were aliquoted at 1 million cells per PCR tube in PBS and heated in Bio-Rad T100 thermal cycler at indicated temperatures (RT, 46° C., 48° C., 50° C., 52° C., 54° C., 56°, 58° C., and 60° C.) for 3 minutes and aggregation temperature was determined by western blot analysis. […]
For orientation: Tetrazolium dyes change colour on reduction, which living cells bring about.

Molecules are shown by their SMILES. Read-outs that look alike come from different tables or passages of the source.

Consider `CN(C)c1ccc(/C=C2\Oc3cc(O)ccc3C2=O)cc1` [Compound T151742], for which the IC50 (read-out: IC50, MTT assay, PC-9) amounted to 14.1 ± 3.99 µM and the IC50 (non-targeted control (scramble), read-out: IC50, MTT assay, PC-9 WT) was 14.1 µM.

The IC50 is the concentration needed to halve the response being measured.
